The source of these data is patent publication US12486219B2, “Modified tetracyclines for treatment of alcohol use disorder, pain and other disorders involving potential inflammatory processes” (Texas Tech University System, priority 2018, dated 2025).

Data set [1] has as its system binge ethanol consumption. Briefly: Binge ethanol consumption, minocycline derivatives (FIGS. 8C to 15C). In kind it is in vivo. The following applies: figure legend only, values not given.
The next data set relates to AUD traits. Particulars: seven tetracyclines tested; cited from earlier work.
The test system of another data set is DID ethanol consumption. Briefly: DID ethanol consumption after "sterilization" of the GI microbiome. The format is in vivo, mice. The following applies: ten-day ampicillin, neomycin, metronidazole, vancomycin; tigecycline 100 mg/kg i.p.; n=7. Here is the method:
A ten-day “sterilization” treatment with ampicillin, neomycin, metronidozale and vancomycin was used. Bedding was changed daily to avoid repopulation. DID was started on day 11 after one day of no metronidazole. Tigecycline was given at 100 mg/kg intraperitoneal (i.p.) n=7, mean±SEM.

The test system of a further data set is DID consumption. Briefly: DID consumption after intracerebroventricular (ICV) drug. The format is in vivo, mice. The following applies: 3 ul of drug (9 mg/ml) icv 20 hrs prior to DID testing; n=9-11; p<0.01. How it is done:
To test the hypothesis that tigecycline works at the level of the CNS, rather than the PNS, 3 ul of drug (9 mg/ml) was given icy 20 hrs prior to DID testing. n=9-11, mean±SEM, **p<0.01.

For a further data set, the system named is E. coli. Briefly: E. coli zone of inhibition (ZOI) and recovered colony forming units (CFU) per disk. The format is cell-based. Particulars: dose response. Here is the method:
Minocycline and two acetylated derivatives, CMM1 (B) and CMM2 (Y), were tested in a dose response manner for A) zone of inhibition (ZOI) and B) recovered colony forming units (CFU) per disk.

The conditions of data set [2]: cited from earlier work.
The next data set concerns DBA/2J mice. Briefly: Alcohol withdrawal, Handling Induced Convulsion scores. The format is in vivo. How it is done: Female and male DBA/2J mice were tested with CMM1, 100 mg/kg per p.o., at 2 hrs following 4 g/kg 20% ethanol in saline. Shown are the Handling Induced Convulsion scores, background subtracted and summed over 24 hours. […] Mean±SEM, n=5/group.
Data set [3] concerns Drinking In the Dark (DID) murine model of binge drinking. In words: Drinking In the Dark (DID) murine model of binge drinking. The following applies: 0, 25, 35, 50 and 100 mg/kg p.o. vs control; n=4/group; p=0.004; dose-dependent. The format is in vivo, mice. How it is done: Using a standard Drinking In the Dark (DID) murine model of binge drinking, we tested the effect of 0, 25, 35, 50 and 100 mg/kg per os (p.o.) acetylated minocycline (derivative Y, or CMM1) vs control.

As for `COc1ccc(N(C)C)c2c1C(=O)C1=C(O)c3c(c(N(C)C)c(OC(C)=O)c(C(=O)NC(C)=O)c3OC(C)=O)CC1C2` (stereo not shown) [Methyl Ether Tri Acetate Minocycline, Acetic acid 4-acetoxy-3-acetylcarbamoyl-1,10-bis-dimethylamino-5-hydroxy-7-methoxy-6-oxo-6,11,11a,12-tetrahydro-naphthacen-2-yl ester], the binge ethanol consumption result in data set [1] is “reduction of binge ethanol consumption”.
On the same count and under the same terms, in the case of `CC(=O)NC(=O)c1c(O)cc2c(c1O)C(O)=C1C(=O)c3c(OC(C)=O)ccc(N(C)C)c3CC1C2` (stereo not shown) [De Methyl Diacetate Minocycline, Acetic acid 9-acetylcarbamoyl-4-dimethylamino-8,10,11-trihydroxy-12-oxo-5,5a,6,12-tetrahydro-naphthacen-1-yl ester] it was “reduction of binge ethanol consumption”.
Consider `CN(C)c1cc(NC(=O)CNC(C)(C)C)c(O)c2c1C[C@H]1C[C@H]3[C@H](N(C)C)C(O)=C(C(N)=O)C(=O)[C@@]3(O)C(O)=C1C2=O` [Tigecycline], for which, in the data set on AUD traits, the “efficacy against AUD traits” value is listed as “effective”. The “DID ethanol consumption / tigecycline efficacy, sterilized vs not” value with DID ethanol consumption was “No significant difference”. Besides, the DID consumption entry with DID consumption is given as “reduced DID consumption”.
On to `CC(=O)NC(=O)c1c(OC(C)=O)c2c(c(N(C)C)c1OC(C)=O)CC1Cc3c(N(C)C)ccc(OC(C)=O)c3C(=O)C1=C2O` (stereo not shown) [CMM2], for which the “antibiotic activity (ZOI and CFU per disk)” value with E. coli is on record as “loss of antibiotic activity even at high doses”.
A word on the LogD: it is lipophilicity at a set pH, counting ionised and neutral species. A word on the LogP: it is the decadic logarithm of the partition coefficient of the neutral form, usually between octanol and water. Regarding `CN(C)[C@@H]1C(O)=C(C(N)=O)C(=O)[C@@]2(O)C(O)=C3C(=O)c4c(O)cccc4[C@@](C)(O)[C@H]3[C@H](O)[C@@H]12` [Oxytetracycline], in data set [2], the LogD was −4.25 and the LogP is reported as −1.5.
For `CC(=O)NC(=O)c1c(OC(C)=O)c2c(c(N(C)C)c1OC(C)=O)CC1Cc3c(N(C)C)ccc(OC(C)=O)c3C(=O)C1=C2OC(C)=O` (stereo not shown) [CMM1], the “alcohol withdrawal symptoms (Handling Induced Convulsion scores summed over 24 hours)” value with DBA/2J mice (100 mg/kg p.o. at 2 hrs following 4 g/kg 20% ethanol, female and male DBA/2J mice, n=5/group) was “reduced alcohol withdrawal symptoms”. In addition, in the data set on DBA/2J mice (100 mg/kg p.o., DBA/2J mice), the “efficacy on withdrawal compared with minocycline” value is listed as “more effective than the parent drug, minocycline” and the “efficacy on withdrawal, females vs males” value is “more effective in females”. For the same compound, the “ethanol consumption (DID)” value in data set [3] was “significantly reduced drinking”. Moreover, the “antibiotic activity (ZOI and CFU per disk)” value in the data set with E. coli is “loss of antibiotic activity even at high doses”.
As for `CCOc1ccc(N(C)C)c2c1C(=O)C1=C(O)C3(O)C(=O)C(C(N)=O)=C(O)C(N(C)C)C3CC1C2` (stereo not shown) [Ethyl Ether Minocycline, 4,7-Bis-dimethylamino-10-ethoxy-3,12,12a-trihydroxy-1,11-dioxo-1,4,4a,5,5a,6,11,12a-octahydro-naphthacene-2-carboxylic acid amide], the binge ethanol consumption entry in data set [1] is on record as “reduction of binge ethanol consumption”.
Take `CCCOc1ccc(N(C)C)c2c1C(=O)C1=C(O)C3(O)C(=O)C(C(N)=O)=C(O)C(N(C)C)C3CC1C2` (stereo not shown) [Propyl Ether Minocycline, 4,7-Bis-dimethylamino-3,12,12a-trihydroxy-1,11-dioxo-10-propoxy-1,4,4a,5,5a,6,11,12a-octahydro-naphthacene-2-carboxylic acid amide]: in data set [1], the binge ethanol consumption entry is on record as “reduction of binge ethanol consumption”.
For `CC(=O)NC(=O)c1c(OC(C)=O)c2c(c(N(C)C)c1OC(C)=O)CC1Cc3c(N(C)C)ccc(OC(C)=O)c3C(=O)C1=C2O` (stereo not shown) [Tetra Acetyl Minocycline, Acetic acid 3,10-diacetoxy-2-acetylcarbamoyl-4,7-bis-dimethylamino-12-hydroxy-11-oxo-5,5a,6,11-tetrahydro-naphthacen-1-yl ester], in data set [1], the binge ethanol consumption entry is recorded as “reduction of binge ethanol consumption”.
Turning to `COc1ccc(N(C)C)c2c1C(=O)C1=C(O)c3c(O)c(C(=O)NC(C)=O)c(O)c(N(C)C)c3CC1C2` (stereo not shown) [Methyl Ether N-Monoacetate Minocycline, 4,7-Bis-dimethylamino-1,3,12-trihydroxy-10-methoxy-11-oxo-5,5a,6,11-tetrahydro-naphthacene-2-carboxylic acid acetyl-amide], the binge ethanol consumption entry in data set [1] is recorded as “reduction of binge ethanol consumption”.
As for `CN(C)c1ccc(O)c2c1CC1CC3C(N(C)C)C(O)=C(C(N)=O)C(=O)C3(O)C(O)=C1C2=O` (stereo not shown) [Minocycline, 4.7-Bis-dimcthylamino-3,10,12,12a-tctrahydroxy-1,11-dioxo-1,4.4a,5,5a,6,11,12 a-octahydro-naphthacene-2-carboxylic acid amide], the “efficacy against AUD traits” value in the data set on AUD traits is “effective”.
As to `C[C@H]1c2cccc(O)c2C(=O)C2=C(O)[C@]3(O)C(=O)C(C(N)=O)=C(O)[C@@H](N(C)C)[C@@H]3[C@@H](O)[C@@H]21` [Doxycycline], the “efficacy against AUD traits” value in the data set on AUD traits is recorded as “effective”.
Regarding `CC(=O)NC(=O)c1c(OC(C)=O)c2c(c(N(C)C)c1OC(C)=O)CC1Cc3c(N(C)C)ccc(OC(C)=O)c3C(=O)C1=C2OC(C)=O` (stereo not shown) [Penta Acetyl Minocycline, Acetic acid 3,10,12-triacetoxy-2-acetylcarbamoyl-4,7-bis-dimethylamino-11-oxo-5,5a,6,11-tetrahydro-naphthacen-1-yl ester], in data set [1], the binge ethanol consumption entry is listed as “reduction of binge ethanol consumption”.
The same measure, in the same setting: in the case of `CCCCOc1ccc(N(C)C)c2c1C(=O)C1=C(O)C3(O)C(=O)C(C(N)=O)=C(O)C(N(C)C)C3CC1C2` (stereo not shown) [Butyl Ether Minocycline, 10-Butoxy-4,7-bis-dimethylamino-3,12,12a-trihydroxy-1,11-dioxo-1,4,4a,5,5a,6,11,12a-octahydro-naphthacene-2-carboxylic acid amide] it was “reduction of binge ethanol consumption”.
Same read-out and setting: as for `COc1ccc(N(C)C)c2c1C(=O)C1=C(O)C3(O)C(=O)C(C(N)=O)=C(O)C(N(C)C)C3CC1C2` (stereo not shown) [Methyl Ether Minocycline, 4,7-Bis-dimethylamino-3,12,12a-trihydroxy-10-methoxy-1,11-dioxo-1,4,4a,5,5a,6,11,12a-octahydro-naphthacene-2-carboxylic acid amide], the entry is “reduction of binge ethanol consumption”.
